Columns and labels:
Abutilon theophrasti = experiment: Post-emergence herbicidal activity test (stem and leaf spray, pot culture); type: in vivo; details: 3 weeks after spraying
In short: (§1)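 Foliar spray, 2–3-leaf stage, 10/5/2.5 g/mu; acetone/Tween 80 + methyl oleate 1.5 L/ha. Greenhouse 3 wk, 20–30 °C. Score: fresh-wt control, grade 5 ≥85% … grade 0 <5%.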

Amaranthus retroflexus = experiment: as above; type: in vivo; details: 3 weeks after spraying
In short: as §1

Echinochloa crusgalli = experiment: as above; type: in vivo; details: 3 weeks after spraying
In short: as §1

Portulaca oleracea = experiment: as above; type: in vivo; details: 3 weeks after spraying
In short: as §1

Setaria viridis = experiment: as above; type: in vivo; details: 3 weeks after spraying
In short: as §1

Trifoliumre pensL. = experiment: Post-emergence herbicidal activity test (stem and leaf spray, pot culture); type: in vivo; details: 3 weeks after spraying
In short: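 Pot-grown weeds in loam (pH 7), greenhouse at 20–30 °C, sprayed once post-emergence at the 2–3-leaf stage. Compound in acetone with Tween 80 plus methyl oleate oil (1.5 L/ha), applied at 10, 5 and 2.5 g/mu by spray tower. Effect scored 3 weeks after spraying, averaged over three repeats.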

melting point | SMILES | Post-emergence herbicidal activity, A. theophrasti (grade) (Abutilon theophrasti; dosage 2.5 g/mu) | Post-emergence herbicidal activity, A. theophrasti (grade) (Abutilon theophrasti; dosage 5 g/mu) | Post-emergence herbicidal activity, A. theophrasti (grade) (Abutilon theophrasti; dosage 10 g/mu) | Post-emergence herbicidal activity, A. retroflexus (grade) (Amaranthus retroflexus; dosage 2.5 g/mu) | Post-emergence herbicidal activity, A. retroflexus (grade) (Amaranthus retroflexus; dosage 5 g/mu) | Post-emergence herbicidal activity, A. retroflexus (grade) (Amaranthus retroflexus; dosage 10 g/mu) | Post-emergence herbicidal activity, E. crusgalli (grade) (Echinochloa crusgalli; dosage 2.5 g/mu) | Post-emergence herbicidal activity, E. crusgalli (grade) (Echinochloa crusgalli; dosage 5 g/mu) | Post-emergence herbicidal activity, E. crusgalli (grade) (Echinochloa crusgalli; dosage 10 g/mu) | Post-emergence herbicidal activity, P. oleracea (grade) (Portulaca oleracea; dosage 2.5 g/mu) | Post-emergence herbicidal activity, P. oleracea (grade) (Portulaca oleracea; dosage 5 g/mu) | Post-emergence herbicidal activity, P. oleracea (grade) (Portulaca oleracea; dosage 10 g/mu) | Post-emergence herbicidal activity, S. viridis (grade) (Setaria viridis; dosage 2.5 g/mu) | Post-emergence herbicidal activity, S. viridis (grade) (Setaria viridis; dosage 5 g/mu) | Post-emergence herbicidal activity, S. viridis (grade) (Setaria viridis; dosage 10 g/mu) | Post-emergence herbicidal activity, Trifoliumre pensL. (grade) (Trifoliumre pensL.; dosage 2.5 g/mu) | Post-emergence herbicidal activity, Trifoliumre pensL. (grade) (Trifoliumre pensL.; dosage 5 g/mu) | Post-emergence herbicidal activity, Trifoliumre pensL. (grade) (Trifoliumre pensL.; dosage 10 g/mu)
151 to 153 °C | COc1ccc(C(=O)COc2cc(N3C(=O)C4=C(CCCC4)C3=O)c(F)cc2Cl)cc1 [Compound C13, 2-(4-chloro-2-fluoro-5-(2-oxo-2-(4-methoxyphenyl)ethoxy)phenyl)-4,5,6,7-tetrahydro-1H-isoindole-1,3(2H)-dione] | 5 (Grade 5: the growth control rate is greater than or equal to 85%) | 5 (Grade 5: the growth control rate is greater than or equal to 85%) | 5 (Grade 5: the growth control rate is greater than or equal to 85%) | 5 (Grade 5: the growth control rate is greater than or equal to 85%) | 5 (Grade 5: the growth control rate is greater than or equal to 85%) | 5 (Grade 5: the growth control rate is greater than or equal to 85%) | 1 (Grade 1: the growth control rate is greater than or equal to 5% and less than 20%) | 2 (Grade 2: the growth control rate is greater than or equal to 20% and less than 40%) | 3 (Grade 3: the growth control rate is greater than or equal to 40% and less than 60%) | 5 (Grade 5: the growth control rate is greater than or equal to 85%) | 5 (Grade 5: the growth control rate is greater than or equal to 85%) | 5 (Grade 5: the growth control rate is greater than or equal to 85%) | 2 (Grade 2: the growth control rate is greater than or equal to 20% and less than 40%) | 3 (Grade 3: the growth control rate is greater than or equal to 40% and less than 60%) | 4 (Grade 4: the growth control rate is greater than or equal to 60% and less than 85%) | 5 (Grade 5: the growth control rate is greater than or equal to 85%) | 5 (Grade 5: the growth control rate is greater than or equal to 85%) | 5 (Grade 5: the growth control rate is greater than or equal to 85%)
148 to 150 °C | O=C(COc1cc(N2C(=O)C3=C(CCCC3)C2=O)c(F)cc1Cl)c1ccc([N+](=O)[O-])cc1 [Compound C9, 2-(4-chloro-2-fluoro-5-(2-oxo-2-(4-nitrophenyl)ethoxy)phenyl)-4,5,6,7-tetrahydro-1H-isoindole-1,3(2H)-dione] | 5 (Grade 5: the growth control rate is greater than or equal to 85%) | 5 (Grade 5: the growth control rate is greater than or equal to 85%) | 5 (Grade 5: the growth control rate is greater than or equal to 85%) | 5 (Grade 5: the growth control rate is greater than or equal to 85%) | 5 (Grade 5: the growth control rate is greater than or equal to 85%) | 5 (Grade 5: the growth control rate is greater than or equal to 85%) | 1 (Grade 1: the growth control rate is greater than or equal to 5% and less than 20%) | 2 (Grade 2: the growth control rate is greater than or equal to 20% and less than 40%) | 3 (Grade 3: the growth control rate is greater than or equal to 40% and less than 60%) | 5 (Grade 5: the growth control rate is greater than or equal to 85%) | 5 (Grade 5: the growth control rate is greater than or equal to 85%) | 5 (Grade 5: the growth control rate is greater than or equal to 85%) | 2 (Grade 2: the growth control rate is greater than or equal to 20% and less than 40%) | 3 (Grade 3: the growth control rate is greater than or equal to 40% and less than 60%) | 4 (Grade 4: the growth control rate is greater than or equal to 60% and less than 85%) | 5 (Grade 5: the growth control rate is greater than or equal to 85%) | 5 (Grade 5: the growth control rate is greater than or equal to 85%) | 5 (Grade 5: the growth control rate is greater than or equal to 85%)
126 to 128 °C | O=C(COc1cc(N2C(=O)C3=C(CCCC3)C2=O)c(F)cc1Cl)c1ccc(F)cc1 [Compound C8, 2-(4-chloro-2-fluoro-5-(2-oxo-2-(4-fluorophenyl)ethoxy)phenyl)-4,5,6,7-tetrahydro-1H-isoindole-1,3(2H)-dione] | 5 (Grade 5: the growth control rate is greater than or equal to 85%) | 5 (Grade 5: the growth control rate is greater than or equal to 85%) | 5 (Grade 5: the growth control rate is greater than or equal to 85%) | 5 (Grade 5: the growth control rate is greater than or equal to 85%) | 5 (Grade 5: the growth control rate is greater than or equal to 85%) | 5 (Grade 5: the growth control rate is greater than or equal to 85%) | 1 (Grade 1: the growth control rate is greater than or equal to 5% and less than 20%) | 2 (Grade 2: the growth control rate is greater than or equal to 20% and less than 40%) | 3 (Grade 3: the growth control rate is greater than or equal to 40% and less than 60%) | 5 (Grade 5: the growth control rate is greater than or equal to 85%) | 5 (Grade 5: the growth control rate is greater than or equal to 85%) | 5 (Grade 5: the growth control rate is greater than or equal to 85%) | 2 (Grade 2: the growth control rate is greater than or equal to 20% and less than 40%) | 3 (Grade 3: the growth control rate is greater than or equal to 40% and less than 60%) | 4 (Grade 4: the growth control rate is greater than or equal to 60% and less than 85%) | 5 (Grade 5: the growth control rate is greater than or equal to 85%) | 5 (Grade 5: the growth control rate is greater than or equal to 85%) | 5 (Grade 5: the growth control rate is greater than or equal to 85%)
119 to 121 °C | O=C1C2=C(CCCC2)C(=O)N1c1cc(OCc2ccc(F)cc2)c(Cl)cc1F [Compound C10, 2-(4-chloro-2-fluoro-5-((4-fluorobenzyl)oxy)phenyl)-4,5,6,7-tetrahydro-1H-isoindole-1,3(2H)-dione] | 5 (Grade 5: the growth control rate is greater than or equal to 85%) | 5 (Grade 5: the growth control rate is greater than or equal to 85%) | 5 (Grade 5: the growth control rate is greater than or equal to 85%) | 5 (Grade 5: the growth control rate is greater than or equal to 85%) | 5 (Grade 5: the growth control rate is greater than or equal to 85%) | 5 (Grade 5: the growth control rate is greater than or equal to 85%) | 1 (Grade 1: the growth control rate is greater than or equal to 5% and less than 20%) | 2 (Grade 2: the growth control rate is greater than or equal to 20% and less than 40%) | 3 (Grade 3: the growth control rate is greater than or equal to 40% and less than 60%) | 5 (Grade 5: the growth control rate is greater than or equal to 85%) | 5 (Grade 5: the growth control rate is greater than or equal to 85%) | 5 (Grade 5: the growth control rate is greater than or equal to 85%) | 2 (Grade 2: the growth control rate is greater than or equal to 20% and less than 40%) | 3 (Grade 3: the growth control rate is greater than or equal to 40% and less than 60%) | 4 (Grade 4: the growth control rate is greater than or equal to 60% and less than 85%) | 5 (Grade 5: the growth control rate is greater than or equal to 85%) | 5 (Grade 5: the growth control rate is greater than or equal to 85%) | 5 (Grade 5: the growth control rate is greater than or equal to 85%)
